In patent publication US11401278B2, “Macrocyclic indole derivatives” (The Broad Institute, Inc., priority 2017, dated 2022) one finds IC50 data, which are given here for 13 compounds.

Values joined by “and” are separate entries in the source; they are usually repeats but may differ in a detail not shown here. Identical values can stand only once. Counter-ions that a name gives are not always drawn. Like-named read-outs stand apart in the source and are kept apart here.

Data set [1] deals with AMO-1. In words: Antiproliferation assay (Assay 7), AMO-1. The conditions noted are these: CellTiter-Glo, several values per example. It counts as cell-based. The method in brief: (§1)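 Proliferation was read by CellTiter-Glo luminescence after 72 hours of compound treatment at 37° C. The read was referenced to a parallel plate measured at time zero.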
Data set [2] concerns SUDHL5. In words: Antiproliferation assay (Assay 7), SUDHL5. It counts as cell-based. The conditions noted are these: CellTiter-Glo, median, read-out: Antiproli SUDHL5 [M] (median) IC50. The method in brief:
as §1

Data set [3] relates to SUDHL5. In words: Induction of cytotoxicity (Assay 6), SUDHL5. The following applies: read-out: Cytotox SUDHL5 [M] (median) IC50, CellTiter-Glo, 5 hours, SUDHL5.
Experimental: Assay 6 Induction of Cytotoxicity Upon Treatment of Cells with Selected Compounds
Therefore, cytotoxicity assays were run in parallel in SUDHL5 and SUDHL10 cells.
The different cell lines were plated in culture medium (RPMI 1640 [GIBCO #22400-089] supplemented with 10% Fetal Bovine Serum) at a density of 3,300 cells in 30 μl/well in a sterile, solid black, flat bottom, polystyrene, TC-treated 384-well microplate (Corning #3571) using Multidrop Combi Reagent Dispenser. As a control, medium without cells was also added to the plate. Cells were incubated in a humidified incubator at 37° C. overnight. On the next day, the cells were treated with compounds (stock solution, 10 mM in DMSO) using the HP D300 Digital Dispenser in a concentration range of 3.3×10e-5 M (33 μM) to 5×10e-9 M (5 nM) in a single-dot curve with at least 16 dilutions and a DMSO concentration of 0.33%. Rim wells were excluded. The cells were incubated for 5 hours in a humidified incubator at 37° C. After this incubation, 30 μl of CellTiter-Glo® Luminescent Cell Viability reagent (Promega, G7573) was added to each well using the Multidrop Combi Reagent Dispenser, followed by 15 minutes incubation on a shaker at room temperature. Finally, luminescence was read at 0.1 ms, with a gain of 3000 using the PHERAstar FS microplate reader (BMG Labtech).
In data set [4] the target is BCL-2 (Homo sapiens (Human), UniProt P10415). In words: Protein-protein interaction assay BCL-2/Bad BH3 peptide (BCL-2 assay, TR-FRET). It counts as binding. The following applies: His-BCL-2 / Bad BH3 peptide, median. An outline of the steps:
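His-BCL-2 (1-211, E. coli) at 1 nM preincubated 10 min at 22 °C with compound (11 concentrations, 0.1 nM-20 μM, duplicates), then 1 nM biotinylated Bad BH3 peptide added. After 1 h at 22 °C plus overnight at 4 °C, TR-FRET 665/620 ratio normalised to DMSO and no-BCL-2 controls, IC50 from 4-parameter fit.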

Where [5] appears, read: Homo sapiens, AMO1, 72 h, read-out: Antiproli AMO-1 [M] IC50.
Where [6] appears, read: 72 hours, read-out: Antiproli AMO-1 [M] IC50.

BCL-2, sequence (P10415 other isoform, or with tags, fused parts or gaps): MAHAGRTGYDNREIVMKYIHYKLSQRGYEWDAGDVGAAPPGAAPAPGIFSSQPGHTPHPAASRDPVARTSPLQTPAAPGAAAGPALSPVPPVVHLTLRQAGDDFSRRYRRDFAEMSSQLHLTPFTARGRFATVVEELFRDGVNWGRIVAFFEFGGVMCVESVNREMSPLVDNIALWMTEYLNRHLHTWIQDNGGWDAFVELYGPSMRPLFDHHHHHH

Consider `CCc1c2c(nn1C)CN(C)S(=O)(=O)CCCn1c(C(=O)O)c(CCCOc3cccc4cc(F)ccc34)c3ccc(F)c-2c31` (racemic) [Example 7, (rac)-12-Ethyl-13-fluoro-1-(3-((6-fluoronaphthalen-1-yl)oxy)propyl)-8,11-dimethyl-5,6,9,11-tetrahydro-4H,8H-pyrazolo[3′,4′:4,5][1]thia[2,8]diazacycloundecino[6,7,8-hi]indole-2-carboxylic acid 7,7-dioxide], for which the IC50 in data set [1] (72 hours, listed as 07, read-out: Antiproli AMO-1 [M] IC50) amounted to 2.2e-06 M; in data set [1] (setting [5]) it was 2e-06 M; in data set [2] (Homo sapiens, SU-DHL-5, 72 h) it was 2.2e-07 M; in data set [3] (Homo sapiens, SU-DHL-5, 5 h), 4.7e-07 M; in data set [4] it was 18 µM.
With `CCc1c2c(nn1C)CN(C)S(=O)(=O)CCCn1c(C(=O)O)c(CCCOc3cccc4cc(F)ccc34)c3ccc(F)c-2c31` (single isomer, unassigned; enantiomer 1) [Example 8, (+)-3-Ethyl-4-fluoro-7-{3-[(6-fluoronaphthalen-1-yl)oxy]propyl}-2,14-dimethyl-13,13-dioxo-10,11,12,13,14,15-hexahydro-2H-13λ^6-pyrazolo[3′,4′:4,5][1,2,8]thiadiazacycloundecino-[6,7,8-hi]indole-8-carboxylic acid (Enantiomer 1)], the IC50 is 1.5e-06 M in data set [1] (72 hours, listed as 08, read-out: Antiproli AMO-1 [M] IC50); 7.6e-07 M in data set [2] (72 hours); 7.7e-07 M in data set [3]; greater than 20 µM in data set [4].
In the case of `CCc1c2c(nn1C)C(CCC1CCOCC1)N(C)S(=O)(=O)CCCn1c(C(=O)O)c(CCCOc3cccc4cc(F)ccc34)c3ccc(Cl)c-2c31` (single isomer, unassigned; enantiomer 3) [Example 63, (+)-4-chloro-3-ethyl-7-{3-[(6-fluoronaphthalen-1-yl)oxy]propyl}-2,14-dimethyl-15-[2-(oxan-4-yl)ethyl]-13,13-dioxo-10,11,12,13,14,15-hexahydro-2H-13lambda^6-pyrazolo[3′,4′:4,5][1,2,8]thiadiazacycloundecino[6,7,8-hi]indole-8-carboxylic acid (Enantiomer 3)], the IC50 in data set [1] (setting [6]) is 4e-08 M and 4.5e-08 M and 3.3e-08 M; in data set [2] (72 hours), 7e-08 M; in data set [3], 4.5e-08 M; in data set [4] it was 19 µM.
In the case of `CCc1c2c(nn1C)CN(C)S(=O)(=O)CCCn1c(C(=O)O)c(CCCOc3cc(C)c(Cl)c(C)c3)c3ccc(Cl)c-2c31` [Example 22, (rac)-13-Chloro-1-(3-(4-chloro-3,5-dimethylphenoxy)propyl)-12-ethyl-8,11-dimethyl-4,5,6,8,9,11-hexahydropyrazolo[3′,4′:4,5][1,2,8]thiadiazacycloundecino[6,7,8-hi]indole-2-carboxylic acid 7,7-dioxide], the IC50 is 2.6e-06 M in data set [1] (setting [5]); 1.9e-06 M in data set [2] (Homo sapiens, SU-DHL-5, 72 h); 2.1e-06 M in data set [3] (Homo sapiens, SU-DHL-5, 5 h); greater than 20 µM in data set [4].
Turning to `Cc1c2c(nn1C)CNS(=O)(=O)CCCn1c(C(=O)O)c(CCCOc3cccc4cc(F)ccc34)c3ccc(Cl)c-2c31` (single isomer, unassigned; enantiomer 2) [Example 52, 4-chloro-7-{3-[(6-fluoronaphthalen-1-yl)oxy]propyl}-2,3-dimethyl-13,13-dioxo-10,11,12,13,14,15-hexahydro-2H-13lambda^6-pyrazolo[3′,4′:4,5][1,2,8]thiadiazacycloundecino[6,7,8-hi]indole-8-carboxylic acid (Enantiomer 2)], the concentration for half-maximal inhibition (IC50) in data set [1] (setting [6]) is 1.1e-05 M; in data set [2] (72 hours) it was 2e-05 M; in data set [3], 1.7e-05 M; in data set [4] it was greater than 20 µM.
In the case of `Cc1c2c(nn1C)CN(C)S(=O)(=O)CCCn1c(C(=O)O)c(CCCOc3cccc4cc(F)ccc34)c3ccc(F)c-2c31` (single isomer, unassigned; enantiomer 2) [Example 39, (+)-4-fluoro-7-{3-[(6-fluoronaphthalen-1-yl)oxy]propyl}-2,3,14-trimethyl-13,13-dioxo-10,11,12,13,14,15-hexahydro-2H-13lambda^6-pyrazolo[3′,4′:4,5][1,2,8]thiadiazacycloundecino-[6,7,8-hi]indole-8-carboxylic acid (Enantiomer 2)], the IC50 was 1.4e-06 M in data set [1] (setting [6]), 5.4e-07 M in data set [2] (72 hours), 4.5e-07 M in data set [3] and greater than 20 µM in data set [4].
For the compound `Cc1c2c(nn1C)CN(C1CC1)S(=O)(=O)CCCn1c(C(=O)O)c(CCCOc3cccc4cc(F)ccc34)c3ccc(Cl)c-2c31` (single isomer, unassigned; enantiomer 2) [Example 43, (+)-4-chloro-14-cyclopropyl-7-{3-[(6-fluoro-1-naphthyl)oxy]propyl}-2,3-dimethyl-11,12,14,15-tetrahydro-2H,10H-pyrazolo[3′,4′:4,5][1,2,8]thiadiazacycloundecino[6,7,8-hi]indole-8-carboxylic acid 13,13-dioxide N-diethylamine salt (Enantiomer 2)], the IC50 in data set [1] (setting [6]) was 1.1e-05 M; in data set [2] (72 hours), 7e-06 M; in data set [3] it was 9.6e-06 M; in data set [4], greater than 20 µM.
Take `Cc1c2c(nn1C)CN(C1CC1)S(=O)(=O)CCCn1c(C(=O)O)c(CCCOc3cccc4ccccc34)c3ccc(Cl)c-2c31` [Example 40, (rac)-4-chloro-14-cyclopropyl-2,3-dimethyl-7-[3-(1-naphthyloxy)propyl]-11,12,14,15-tetrahydro-2H,10H-pyrazolo[3′,4′:4,5][1,2,8]thiadiazacycloundecino[6,7,8-hi]indole-8-carboxylic acid 13,13-dioxide]: the IC50 in data set [1] (setting [6]) is 4.9e-06 M; in data set [2] (72 hours), 2.6e-06 M; in data set [3], 2e-06 M; in data set [4], greater than 20 µM.
For the compound `Cc1c2c(nn1C)CN(C)S(=O)(=O)CCCn1c(C(=O)O)c(CCCOc3ccc(F)c4ccccc34)c3ccc(F)c-2c31` [Example 30, (rac)-13-Fluoro-1-(34(4-fluoronaphthalen-1-yl)oxy)propyl)-8,11,12-trimethyl-5,6,9,11-tetrahydro-4H,8H-pyrazolo[3′,4′:4,5][1]thia[2,8]diazacycloundecino[6,7,8-hi]indole-2-carboxylic acid 7,7-dioxide], the IC50 in data set [1] (setting [5]) is 7e-06 M; in data set [2] (Homo sapiens, SU-DHL-5, 72 h) it was 1.4e-06 M; in data set [3] (Homo sapiens, SU-DHL-5, 5 h), 1.7e-06 M; in data set [4] it was greater than 20 µM.
On to `Cc1c2c(nn1C)CN(C)S(=O)(=O)CCCn1c(C(=O)O)c(CCCOc3cccc4cc(F)ccc34)c3ccc(F)c-2c31` (racemic) [Example 25, (rac)-13-Fluoro-1-(3-((6-fluoronaphthalen-1-yl)oxy)propyl)-8,11,12-trimethyl-5,6,9,11-tetrahydro-4H,8H-pyrazolo[3′,4′:4,5][1]thia[2,8]diazacycloundecino[6,7,8-hi]indole-2-carboxylic acid 7,7-dioxide], for which the IC50 was 4.1e-06 M in data set [1] (setting [5]); 4.1e-07 M in data set [2] (Homo sapiens, SU-DHL-5, 72 h); 7.5e-07 M in data set [3] (Homo sapiens, SU-DHL-5, 5 h); > 20 µM and 51 µM and 46 µM in data set [4].
For `Cc1c2c(nn1C)CN(C1CC1)S(=O)(=O)CCCn1c(C(=O)O)c(CCCOc3cccc4cc(F)ccc34)c3ccc(Cl)c-2c31` (racemic) [Example 41, (rac)-4-chloro-14-cyclopropyl-7-{3-[(6-fluoro-1-naphthyl)oxy]propyl}-2,3-dimethyl-11,12,14,15-tetrahydro-2H,10H-pyrazolo[3′,4′:4,5][1,2,8]thiadiazacycloundecino[6,7,8-hi]indole-8-carboxylic acid 13,13-dioxide], the IC50 in data set [1] (setting [6]) was 8e-07 M; in data set [2] (72 hours), 1.2e-06 M; in data set [3], 9.7e-07 M; in data set [4] it was 19 µM.
Regarding `Cc1c2c(nn1C)C(CCN1CCOCC1)N(C)S(=O)(=O)CCCn1c(C(=O)O)c(CCCOc3cccc4cc(F)ccc34)c3ccc(Cl)c-2c31` (single isomer, unassigned; enantiomer 1) [Example 66, 4-chloro-7-{3-[(6-fluoronaphthalen-1-yl)oxy]propyl}-2,3,14-trimethyl-15-[2-(morpholin-4-yl)ethyl]-13,13-dioxo-10,11,12,13,14,15-hexahydro-2H-13lambda^6-pyrazolo[3′,4′:4,5][1,2,8]thiadiazacycloundecino[6,7,8-hi]indole-8-carboxylic acid (Enantiomer 1)], the IC50 in data set [1] (setting [6]) was 3.7e-06 M; in data set [2] (72 hours), 4e-06 M; in data set [3], 3.3e-06 M; in data set [4], greater than 20 µM.
`Cc1c2c(nn1C)CN(C)S(=O)(=O)CCCn1c(C(=O)O)c(CCCOc3cccc4cc(F)ccc34)c3ccc(F)c-2c31` (single isomer, unassigned; enantiomer 1) [Example 38, (−)-4-fluoro-7-{3-[(6-fluoronaphthalen-1-yl)oxy]propyl}-2,3,14-trimethyl-13,13-dioxo-10,11,12,13,14,15-hexahydro-2H-13lambda^6-pyrazolo[3′,4′:4,5][1,2,8]thiadiazacycloundecino-[6,7,8-hi]indole-8-carboxylic acid (Enantiomer 1)]: the IC50 in data set [1] (setting [6]) is 2.9e-05 M; in data set [2] (72 hours), 7.8e-06 M; in data set [3] it was 1.7e-05 M; in data set [4], greater than 20 µM.
